Assay results published in ChEMBL document CHEMBL4028908, “The Discovery of 3-((4-Chloro-3-methoxyphenyl)amino)-1-((3R,4S)-4-cyanotetrahydro-2H-pyran-3-yl)-1H-pyrazole-4-carboxamide, a Highly Ligand Efficient and Efficacious Janus Kinase 1 Selective Inhibitor with Favorable Pharmacokinetic Properties” (J Med Chem, 2017).
pIC50: −log10 of the molar value. Converted amounts (≈) assume the structure as drawn.

Experiments:
[1] = Oral bioavailability in rat at 1 mg/kg; format: ADME, organism-based; conditions: in vivo
[2] = Apparent permeability of the compound by cell-based assay; format: physicochemical; conditions: not told
[3] = Lipophilicity, log D of the compound at 100 uM at pH 7 by HPLC/DAD analysis; format: physicochemical; conditions: buffer
[4] = Oral bioavailability in cynomolgus monkey at 0.5 mg/kg; format: ADME, organism-based, Macaca fascicularis; conditions: in vivo
[5] = Protein binding in rat plasma; format: ADME, cell-free; conditions: read-out: PPB (converted)
[6] = Half life in cynomolgus monkey at 0.25 mg/kg, iv or 0.5 mg/kg, po; format: ADME, organism-based, Macaca fascicularis; conditions: in vivo
[7] = Oral bioavailability in dog at 0.5 mg/kg; format: ADME, organism-based, Canis lupus familiaris; conditions: in vivo
[8] = tested on: Rattus norvegicus; assay: Unbound clearance in rat at 0.5 mg/kg, iv or 1 mg/kg, po; format: ADME, organism-based; conditions: in vivo
[9] = Volume of distribution at steady state in cynomolgus monkey at 0.25 mg/kg, iv or 0.5 mg/kg, po; format: ADME, organism-based, Macaca fascicularis; conditions: in vivo, read-out: Vdss
[10] = Volume of distribution at steady state in rat at 0.5 mg/kg, iv or 1 mg/kg, po; format: ADME, organism-based; conditions: in vivo, read-out: Vdss
[11] = target: T1, Tyrosine-protein kinase JAK1 (Homo sapiens, UniProt P23458); assay: Inhibition of JAK1 in human whole blood assessed as decrease in cytokine-stimulated STAT phosphorylation preincubated for 20 mins followed by cytokine addition measured after 30 mins
[12] = target: T2, Tyrosine-protein kinase JAK2 (Homo sapiens, UniProt O60674)
[13] = Intrinsic clearance in dog hepatocytes after 120 mins by LC-MS/MS analysis; format: ADME, cell-based, Canis lupus familiaris, Hepatocyte; conditions: read-out: CLH
[14] = Half life in dog at 0.25 mg/kg, iv or 0.5 mg/kg, po; format: ADME, organism-based, Canis lupus familiaris; conditions: in vivo
[15] = Plasma clearance in dog at 0.25 mg/kg, iv or 0.5 mg/kg, po; format: ADME, organism-based, Canis lupus familiaris
[16] = tested on: Cynomolgus monkey; assay: Unbound clearance in cynomolgus monkey at 0.25 mg/kg, iv or 0.5 mg/kg, po; format: ADME, organism-based, Macaca fascicularis; conditions: in vivo
[17] = Volume of distribution at steady state in dog at 0.25 mg/kg, iv or 0.5 mg/kg, po; format: ADME, organism-based, Canis lupus familiaris; conditions: in vivo, read-out: Vdss
[18] = target: T1, Tyrosine-protein kinase JAK1
[19] = target: T1, Tyrosine-protein kinase JAK1; remark: listed apart in the source
[20] = species: Homo sapiens; assay: Selectivity ratio of IC50 for GST-tagged recombinant human JAK2 catalytic domain to IC50 for GST-tagged recombinant human JAK1 catalytic domain
[21] = tested on: Rattus norvegicus; assay: Antiinflammatory activity in po dosed Lewis rat type 2 bovine collagen-induced arthritis model assessed as inhibition of paw swelling administered as bid on day 17; format: functional, organism-based
[22] = Intrinsic clearance in human hepatocytes after 120 mins by LC-MS/MS analysis; format: ADME, cell-based, Hepatocyte; conditions: read-out: CLH
[23] = target: T3, Tyrosine-protein kinase JAK3 (Homo sapiens, UniProt P52333)
T3 sequence (P52333 whole entry): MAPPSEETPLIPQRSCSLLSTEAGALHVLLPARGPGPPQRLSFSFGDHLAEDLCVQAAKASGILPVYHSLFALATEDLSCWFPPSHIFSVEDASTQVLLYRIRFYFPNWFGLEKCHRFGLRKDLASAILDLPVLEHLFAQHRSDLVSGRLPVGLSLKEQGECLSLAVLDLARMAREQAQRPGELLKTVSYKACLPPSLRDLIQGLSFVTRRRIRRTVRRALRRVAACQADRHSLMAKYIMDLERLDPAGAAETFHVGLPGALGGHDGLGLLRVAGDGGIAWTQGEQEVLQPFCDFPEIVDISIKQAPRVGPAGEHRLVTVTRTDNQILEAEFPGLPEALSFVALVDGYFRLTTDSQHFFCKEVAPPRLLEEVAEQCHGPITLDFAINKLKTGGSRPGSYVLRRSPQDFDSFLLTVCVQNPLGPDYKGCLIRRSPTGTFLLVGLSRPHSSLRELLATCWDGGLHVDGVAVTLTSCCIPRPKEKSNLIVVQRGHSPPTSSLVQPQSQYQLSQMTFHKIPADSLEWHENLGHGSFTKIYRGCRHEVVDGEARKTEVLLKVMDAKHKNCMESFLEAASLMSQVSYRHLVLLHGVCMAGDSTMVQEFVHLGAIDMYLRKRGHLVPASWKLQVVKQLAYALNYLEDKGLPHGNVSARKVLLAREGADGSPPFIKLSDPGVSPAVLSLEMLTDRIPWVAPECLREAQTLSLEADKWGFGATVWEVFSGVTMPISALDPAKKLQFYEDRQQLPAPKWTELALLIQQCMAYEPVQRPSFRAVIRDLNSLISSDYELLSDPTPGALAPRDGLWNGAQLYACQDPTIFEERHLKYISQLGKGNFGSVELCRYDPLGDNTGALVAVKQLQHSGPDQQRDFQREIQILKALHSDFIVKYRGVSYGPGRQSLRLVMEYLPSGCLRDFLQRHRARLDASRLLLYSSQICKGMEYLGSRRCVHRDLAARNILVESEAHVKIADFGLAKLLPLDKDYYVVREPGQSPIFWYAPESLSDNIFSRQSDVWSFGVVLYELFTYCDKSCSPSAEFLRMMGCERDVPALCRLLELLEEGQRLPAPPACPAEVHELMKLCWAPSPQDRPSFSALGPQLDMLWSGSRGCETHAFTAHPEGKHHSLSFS

[24] = Plasma clearance in cynomolgus monkey at 0.25 mg/kg, iv or 0.5 mg/kg, po; format: ADME, organism-based, Macaca fascicularis
[25] = Plasma clearance in rat at 0.5 mg/kg, iv or 1 mg/kg, po; format: ADME, organism-based
[26] = Protein binding in cynomolgus monkey plasma; format: ADME, cell-free, Macaca fascicularis; conditions: read-out: PPB (converted)
[27] = target: Non-receptor tyrosine-protein kinase TYK2 (Homo sapiens, UniProt P29597)
[28] = Intrinsic clearance in rat hepatocytes after 120 mins by LC-MS/MS analysis; format: ADME, cell-based, Hepatocyte; conditions: read-out: CLH
[29] = Half life in rat at 0.5 mg/kg, iv or 1 mg/kg, po; format: ADME, organism-based; conditions: in vivo
[30] = Intrinsic clearance in cynomolgus monkey hepatocytes after 120 mins by LC-MS/MS analysis; format: ADME, cell-based, Macaca fascicularis, Hepatocyte; conditions: read-out: CLH
[31] = target: T4, Voltage-gated inwardly rectifying potassium channel KCNH2 (Homo sapiens, UniProt Q12809); assay: Inhibition of human ERG expressed in HEK293 cells by patch clamp method; format: cell-based
[32] = target: T4, Voltage-gated inwardly rectifying potassium channel KCNH2
[33] = tested on: Canis familiaris; assay: Unbound clearance in dog at 0.25 mg/kg, iv or 0.5 mg/kg, po; format: ADME, organism-based, Canis lupus familiaris; conditions: in vivo
[34] = Solubility of the compound in FaSSIF solution at 100 uM after overnight incubation by UPLC/DAD analysis; format: physicochemical
[35] = Protein binding in dog plasma; format: ADME, cell-free, Canis lupus familiaris; conditions: read-out: PPB (converted)
[36] = target: T2, Tyrosine-protein kinase JAK2; remark: listed apart in the source

T4 sequence (Q12809 whole entry): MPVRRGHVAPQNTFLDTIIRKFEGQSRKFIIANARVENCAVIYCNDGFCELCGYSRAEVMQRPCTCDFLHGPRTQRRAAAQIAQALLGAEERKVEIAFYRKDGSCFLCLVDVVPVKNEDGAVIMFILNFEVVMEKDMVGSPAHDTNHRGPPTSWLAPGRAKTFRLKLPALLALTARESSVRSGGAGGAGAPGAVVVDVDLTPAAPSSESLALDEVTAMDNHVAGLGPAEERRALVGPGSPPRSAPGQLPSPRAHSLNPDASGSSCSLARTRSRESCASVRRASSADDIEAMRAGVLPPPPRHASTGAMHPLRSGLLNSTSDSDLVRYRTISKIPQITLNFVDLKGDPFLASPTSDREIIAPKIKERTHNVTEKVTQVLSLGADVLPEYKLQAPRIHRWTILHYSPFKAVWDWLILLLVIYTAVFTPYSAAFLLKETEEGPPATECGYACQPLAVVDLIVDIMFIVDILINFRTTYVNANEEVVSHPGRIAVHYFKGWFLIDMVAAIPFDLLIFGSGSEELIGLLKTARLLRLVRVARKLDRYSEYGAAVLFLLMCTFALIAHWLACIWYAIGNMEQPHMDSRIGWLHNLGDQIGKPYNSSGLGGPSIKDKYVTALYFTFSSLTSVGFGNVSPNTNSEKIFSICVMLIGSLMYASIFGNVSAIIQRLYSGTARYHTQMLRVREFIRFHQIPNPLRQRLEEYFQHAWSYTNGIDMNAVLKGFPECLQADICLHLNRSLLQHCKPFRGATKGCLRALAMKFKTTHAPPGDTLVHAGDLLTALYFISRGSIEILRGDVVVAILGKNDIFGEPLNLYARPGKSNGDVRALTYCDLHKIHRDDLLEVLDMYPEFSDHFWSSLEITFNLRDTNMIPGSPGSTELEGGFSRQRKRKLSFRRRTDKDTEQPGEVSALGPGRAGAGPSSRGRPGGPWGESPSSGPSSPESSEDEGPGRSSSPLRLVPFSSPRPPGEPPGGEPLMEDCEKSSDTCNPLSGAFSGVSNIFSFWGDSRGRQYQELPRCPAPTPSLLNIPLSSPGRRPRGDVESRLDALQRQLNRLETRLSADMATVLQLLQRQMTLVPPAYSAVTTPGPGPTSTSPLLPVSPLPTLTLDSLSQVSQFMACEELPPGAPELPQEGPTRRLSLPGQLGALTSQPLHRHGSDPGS
Sequence of Non-receptor tyrosine-protein kinase TYK2 (P29597 whole entry): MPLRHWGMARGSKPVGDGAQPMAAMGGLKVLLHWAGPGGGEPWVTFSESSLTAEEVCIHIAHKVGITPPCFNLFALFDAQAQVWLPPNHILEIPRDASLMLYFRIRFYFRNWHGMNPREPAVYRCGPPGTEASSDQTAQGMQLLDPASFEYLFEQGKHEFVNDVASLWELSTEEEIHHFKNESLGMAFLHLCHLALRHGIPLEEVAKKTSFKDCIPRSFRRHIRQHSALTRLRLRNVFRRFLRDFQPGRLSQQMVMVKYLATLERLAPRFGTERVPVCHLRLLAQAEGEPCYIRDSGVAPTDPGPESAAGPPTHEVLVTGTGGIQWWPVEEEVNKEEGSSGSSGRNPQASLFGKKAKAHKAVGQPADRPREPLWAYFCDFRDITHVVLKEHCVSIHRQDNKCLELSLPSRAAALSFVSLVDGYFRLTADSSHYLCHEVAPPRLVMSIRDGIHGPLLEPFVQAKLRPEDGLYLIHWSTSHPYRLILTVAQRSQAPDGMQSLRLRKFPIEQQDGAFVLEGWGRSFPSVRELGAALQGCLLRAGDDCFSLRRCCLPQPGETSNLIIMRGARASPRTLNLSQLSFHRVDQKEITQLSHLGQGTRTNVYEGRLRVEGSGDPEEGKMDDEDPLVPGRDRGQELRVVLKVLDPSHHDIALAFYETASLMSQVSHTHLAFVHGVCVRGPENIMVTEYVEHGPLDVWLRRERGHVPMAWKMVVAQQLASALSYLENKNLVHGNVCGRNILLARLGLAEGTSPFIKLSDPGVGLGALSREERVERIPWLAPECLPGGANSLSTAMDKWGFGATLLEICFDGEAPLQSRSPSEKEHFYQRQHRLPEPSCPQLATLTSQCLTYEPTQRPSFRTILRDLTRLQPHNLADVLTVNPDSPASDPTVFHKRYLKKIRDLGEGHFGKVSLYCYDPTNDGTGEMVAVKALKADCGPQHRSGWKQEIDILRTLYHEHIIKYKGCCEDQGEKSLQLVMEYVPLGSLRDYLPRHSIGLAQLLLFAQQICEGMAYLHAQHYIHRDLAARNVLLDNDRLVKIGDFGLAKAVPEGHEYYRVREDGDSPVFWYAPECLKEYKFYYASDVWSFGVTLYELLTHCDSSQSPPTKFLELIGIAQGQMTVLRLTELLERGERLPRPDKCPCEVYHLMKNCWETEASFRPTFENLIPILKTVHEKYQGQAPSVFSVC
T2 sequence (O60674 whole entry): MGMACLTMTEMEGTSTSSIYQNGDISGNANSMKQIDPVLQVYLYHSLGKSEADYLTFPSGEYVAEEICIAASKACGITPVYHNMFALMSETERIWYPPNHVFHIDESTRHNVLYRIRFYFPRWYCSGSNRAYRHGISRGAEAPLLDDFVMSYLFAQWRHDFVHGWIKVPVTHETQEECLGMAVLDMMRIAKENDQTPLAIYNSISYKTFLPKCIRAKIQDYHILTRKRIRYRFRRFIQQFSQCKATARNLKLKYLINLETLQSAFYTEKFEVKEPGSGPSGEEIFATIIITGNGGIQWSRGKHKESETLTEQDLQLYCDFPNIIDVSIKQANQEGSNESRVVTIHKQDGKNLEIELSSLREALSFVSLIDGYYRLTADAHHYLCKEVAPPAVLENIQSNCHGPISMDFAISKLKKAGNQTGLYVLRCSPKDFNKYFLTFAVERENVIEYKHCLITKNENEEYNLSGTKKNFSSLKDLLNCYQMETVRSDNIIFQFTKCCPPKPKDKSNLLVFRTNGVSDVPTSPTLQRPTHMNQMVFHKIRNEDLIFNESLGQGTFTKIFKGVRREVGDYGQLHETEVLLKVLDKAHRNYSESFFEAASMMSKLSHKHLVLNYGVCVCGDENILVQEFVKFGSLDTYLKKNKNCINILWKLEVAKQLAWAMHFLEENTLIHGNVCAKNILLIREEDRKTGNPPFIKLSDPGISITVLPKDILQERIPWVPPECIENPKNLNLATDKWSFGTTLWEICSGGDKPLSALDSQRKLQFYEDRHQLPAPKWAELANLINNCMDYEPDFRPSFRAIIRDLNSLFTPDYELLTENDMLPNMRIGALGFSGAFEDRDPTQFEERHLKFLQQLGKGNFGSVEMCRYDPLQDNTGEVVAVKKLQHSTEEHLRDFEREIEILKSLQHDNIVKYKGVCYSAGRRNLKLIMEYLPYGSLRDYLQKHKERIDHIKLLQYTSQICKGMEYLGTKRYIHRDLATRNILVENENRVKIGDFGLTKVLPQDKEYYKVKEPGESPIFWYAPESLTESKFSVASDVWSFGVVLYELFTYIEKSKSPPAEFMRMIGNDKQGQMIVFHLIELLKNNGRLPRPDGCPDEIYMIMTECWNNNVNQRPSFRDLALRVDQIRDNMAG
T1 sequence (P23458 whole entry): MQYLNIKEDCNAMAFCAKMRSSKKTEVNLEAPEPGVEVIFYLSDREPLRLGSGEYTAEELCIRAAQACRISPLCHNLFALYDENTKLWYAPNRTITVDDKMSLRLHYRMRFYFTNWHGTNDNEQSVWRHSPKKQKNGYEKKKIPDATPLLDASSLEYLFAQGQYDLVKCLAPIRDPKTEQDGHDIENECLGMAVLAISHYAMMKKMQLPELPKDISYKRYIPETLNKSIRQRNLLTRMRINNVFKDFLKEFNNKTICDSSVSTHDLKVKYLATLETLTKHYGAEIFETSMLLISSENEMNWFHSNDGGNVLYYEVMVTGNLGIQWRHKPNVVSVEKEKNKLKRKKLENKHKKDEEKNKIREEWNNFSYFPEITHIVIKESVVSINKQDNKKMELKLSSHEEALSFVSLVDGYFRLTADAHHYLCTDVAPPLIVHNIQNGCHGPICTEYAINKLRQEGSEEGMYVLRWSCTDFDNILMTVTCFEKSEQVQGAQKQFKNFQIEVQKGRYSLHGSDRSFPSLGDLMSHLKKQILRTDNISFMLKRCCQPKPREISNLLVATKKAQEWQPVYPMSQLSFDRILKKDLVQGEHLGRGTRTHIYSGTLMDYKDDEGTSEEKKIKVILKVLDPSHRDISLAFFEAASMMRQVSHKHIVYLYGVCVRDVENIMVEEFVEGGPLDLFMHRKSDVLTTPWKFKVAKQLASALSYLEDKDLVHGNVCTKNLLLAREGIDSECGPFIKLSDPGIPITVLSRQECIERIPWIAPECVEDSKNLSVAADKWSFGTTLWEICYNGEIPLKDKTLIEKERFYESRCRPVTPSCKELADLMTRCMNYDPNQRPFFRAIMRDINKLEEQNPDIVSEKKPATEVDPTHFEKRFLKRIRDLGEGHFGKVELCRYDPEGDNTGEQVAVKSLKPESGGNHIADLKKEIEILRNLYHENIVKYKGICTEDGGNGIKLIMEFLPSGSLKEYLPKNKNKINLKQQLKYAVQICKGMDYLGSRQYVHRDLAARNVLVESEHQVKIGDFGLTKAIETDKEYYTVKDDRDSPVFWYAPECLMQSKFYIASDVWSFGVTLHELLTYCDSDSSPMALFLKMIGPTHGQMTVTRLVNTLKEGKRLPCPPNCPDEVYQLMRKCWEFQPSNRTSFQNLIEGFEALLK

bioavailability [1] | logD at 100 µM [3] | bioavailability [4] | fraction unbound [5] | half-life [6] | bioavailability [7] | CL free [8] | Vd [9] | Vd [10] | pIC50 [11] | pIC50 [12] | clearance [15] | Vd [17] | pIC50 [18] | pIC50 [19] | CLint scaled [22] | pIC50 [23] | clearance [25] | pIC50 [27] | CLint scaled [28] | SMILES | other results
0% | 1.54 |  |  |  |  |  |  |  |  |  |  |  |  |  |  |  |  |  |  | N#C[C@H]1C[C@@H](N2CCC2)CC[C@@H]1n1cc(C(N)=O)c(Nc2ccc([C@H](O)C(F)(F)F)cc2)n1 | Papp [2]: 33 nm/s
47% | 2.34 | 32% | 0.06 | 2.8 h | 29% | 21 L/h/kg | 2.8 L/kg | 2.7 L/kg | 5.75 | 6.49 | 0.84 L/h/kg | 1.2 L/kg | 7.89 | 10.00 | 0.36 L/h/kg | 6.40 | 1.26 L/h/kg | 7.92 | 2.1 L/h/kg | COc1cc(Nc2nn([C@H]3COCC[C@@H]3C#N)cc2C(N)=O)ccc1Cl | CLint scaled [13]: 7.32 L/h/kg; half-life [14]: 1.1 h; CL free [16]: 34.9 L/h/kg; Ratio IC50 [20]: 39; inhibition [21]: Dose-dependent effect; clearance [24]: 1.14 L/h/kg; fraction unbound [26]: 0.033; half-life [29]: 1.6 h; CLint scaled [30]: 2.16 L/h/kg
16% | 2.15 |  |  |  | 42% |  |  | 11 L/kg |  |  | 1.26 L/h/kg | 8 L/kg | 7.19 | 8.82 | 1.56 L/h/kg | 5.91 | 2.46 L/h/kg | 7.89 | 6.54 L/h/kg | CN(C)[C@H]1CC[C@H](n2cc(C(N)=O)c(Nc3ccc(Cl)cc3)n2)[C@@H](C#N)C1 | pIC50 [31]: 5.52; pIC50 [32]: 4.91
47% | 1.77 | 18% | 0.19 | 5.6 h | 51% | 6 L/h/kg | 1 L/kg | 2.6 L/kg | 6.66 | 7.05 | 0.72 L/h/kg | 2.7 L/kg | 7.89 | 9.82 | 0.18 L/h/kg | 6.64 | 1.14 L/h/kg | 8.92 | 0.36 L/h/kg | N#Cc1ccc(Nc2nn([C@H]3COCC[C@@H]3C#N)cc2C(N)=O)cc1 | CL free [33]: 4.02 L/h/kg; CLint scaled [13]: 1.2 L/h/kg; half-life [14]: 2.6 h; solubility at 100 µM [34]: 130 µM (≈ 43.7 µg/mL); CL free [16]: 0.72 L/h/kg; fraction unbound [35]: 0.18; Ratio IC50 [20]: 8; inhibition [21]: Dose-dependent effect; clearance [24]: 0.144 L/h/kg; pIC50 [36]: 8.92; fraction unbound [26]: 0.21; half-life [29]: 1.4 h; CLint scaled [30]: 0.36 L/h/kg; pIC50 [32]: 4.40
